Target: Ephrin type-B receptor 4 (Homo sapiens) (UniProt P54760)
Experiment: EPHB4 kinase inhibitors, dose response, biochemical, Z'-LYTE, FRET, protease-coupled, direct format (AID 1671276)
Conditions: Z'-LYTE FRET peptide phosphorylation

Sequence of Ephrin type-B receptor 4 (Homo sapiens) (P54760 whole entry, looked up): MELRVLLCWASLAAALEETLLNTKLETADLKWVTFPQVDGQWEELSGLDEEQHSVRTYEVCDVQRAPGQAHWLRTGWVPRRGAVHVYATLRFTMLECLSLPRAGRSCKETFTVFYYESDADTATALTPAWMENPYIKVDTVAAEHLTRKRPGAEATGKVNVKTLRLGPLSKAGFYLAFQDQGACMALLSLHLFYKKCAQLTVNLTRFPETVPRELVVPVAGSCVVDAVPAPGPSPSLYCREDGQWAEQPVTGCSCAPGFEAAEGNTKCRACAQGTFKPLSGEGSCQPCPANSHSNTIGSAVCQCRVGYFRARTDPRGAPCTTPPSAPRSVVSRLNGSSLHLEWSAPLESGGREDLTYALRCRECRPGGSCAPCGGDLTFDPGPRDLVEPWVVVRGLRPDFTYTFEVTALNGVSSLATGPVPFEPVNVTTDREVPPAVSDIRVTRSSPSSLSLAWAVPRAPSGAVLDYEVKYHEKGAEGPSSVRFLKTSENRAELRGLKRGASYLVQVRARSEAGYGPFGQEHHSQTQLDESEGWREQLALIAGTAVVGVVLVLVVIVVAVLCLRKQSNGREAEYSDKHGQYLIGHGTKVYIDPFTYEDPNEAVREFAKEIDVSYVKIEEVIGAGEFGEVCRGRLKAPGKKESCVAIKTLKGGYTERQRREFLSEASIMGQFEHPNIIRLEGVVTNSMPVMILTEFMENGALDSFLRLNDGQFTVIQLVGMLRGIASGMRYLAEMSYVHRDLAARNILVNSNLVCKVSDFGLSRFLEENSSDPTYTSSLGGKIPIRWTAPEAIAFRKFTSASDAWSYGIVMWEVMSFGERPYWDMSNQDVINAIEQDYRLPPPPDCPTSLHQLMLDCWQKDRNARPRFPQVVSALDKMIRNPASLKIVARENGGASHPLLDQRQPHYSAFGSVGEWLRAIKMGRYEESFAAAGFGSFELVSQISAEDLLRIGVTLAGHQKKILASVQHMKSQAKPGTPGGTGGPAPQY

SMILES: COc1cc2ncnc(Nc3cccc(Cl)c3)c2cc1OC
- IC50: 1590 nM

Source: PubChem BioAssay AID1671276
